The target of data set [1] is T1, HMG CoA reductase (Rattus norvegicus, UniProt P51639).
T1 construct: The resultant supernatants are discarded and the residues suspended in half the volume of homogenization medium previously employed; from tissue; host or cells: liver of male Charles River CD rats treated with 20,25-diazacholesterol; 100,000×g pellet (microsomes) of the homogenate
T1 sequence (P51639 1-887): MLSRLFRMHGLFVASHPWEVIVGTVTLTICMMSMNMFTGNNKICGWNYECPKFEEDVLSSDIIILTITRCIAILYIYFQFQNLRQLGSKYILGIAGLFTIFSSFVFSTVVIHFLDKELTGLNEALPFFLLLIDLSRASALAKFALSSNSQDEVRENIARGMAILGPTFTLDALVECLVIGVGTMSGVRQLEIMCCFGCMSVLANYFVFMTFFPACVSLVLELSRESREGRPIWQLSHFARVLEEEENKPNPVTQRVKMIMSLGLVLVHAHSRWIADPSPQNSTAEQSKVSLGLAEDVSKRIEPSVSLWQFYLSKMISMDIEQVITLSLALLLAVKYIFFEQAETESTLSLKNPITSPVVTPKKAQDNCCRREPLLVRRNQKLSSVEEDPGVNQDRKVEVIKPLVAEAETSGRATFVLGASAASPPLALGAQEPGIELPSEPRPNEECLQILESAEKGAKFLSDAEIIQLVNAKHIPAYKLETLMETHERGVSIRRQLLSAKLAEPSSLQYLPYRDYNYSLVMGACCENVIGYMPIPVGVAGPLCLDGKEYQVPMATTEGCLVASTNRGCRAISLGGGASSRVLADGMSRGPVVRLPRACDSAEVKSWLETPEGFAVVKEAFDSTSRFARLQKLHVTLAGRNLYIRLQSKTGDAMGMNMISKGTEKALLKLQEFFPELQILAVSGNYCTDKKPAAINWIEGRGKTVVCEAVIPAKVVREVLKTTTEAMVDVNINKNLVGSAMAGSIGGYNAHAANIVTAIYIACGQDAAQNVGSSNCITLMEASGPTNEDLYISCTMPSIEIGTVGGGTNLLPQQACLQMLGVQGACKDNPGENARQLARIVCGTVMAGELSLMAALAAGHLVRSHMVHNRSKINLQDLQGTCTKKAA
Kind of data set: HMG CoA reductase activity assay (rat liver microsomal preparation). Format: biochemical.

The test system of data set [2] is male Rhesus monkey. As to the kind of experiment: In vivo serum cholesterol test in male Rhesus monkeys. The settings on record: 60 mg/kg/day.
Experimental: In vivo activity is tested as follows:
Initial serum total cholesterol, triglycerides, and lipoprotein cholesterol values are determined 3 times for each male Rhesus monkey used before treatment with a test compound begins. The test compound is administered in an initial dose of 60 mg/kg for 2 weeks and blood samples are taken to determine if rebound occurs. […] Statistical comparisons are made using the two tailed student's test.

On to `O=C(O)CC(O)(CCCCCCCCCCC1CCCCC1)CC(=O)O`, for which the IC50 in data set [1] (read-out: IC50 (HMG CoA reductase inhibition)) was 52 µM.

`O=C(O)CC(O)(CC(=O)O)CC1CCCC1`: the “HMG CoA reductase inhibition” value in data set [1] (at concentrations at least up to 1000 μm) was “inactive”.

In data set [2] (after 14 days of treatment, Rhesus monkey), `CC(C)(C)CCCCCCCCCCCC(O)(CC(=O)O)CC(=O)O` gave a reduced serum cholesterol of 30%.

Turning to `CCCCCCCCCCCCCCCC(O)(CC(=O)O)CC(=O)O`, the acute toxicity result in data set [2] (Rhesus monkeys) is listed as “acute toxicity in 2 of 4 monkeys”.
